Literature values, collected in EP2103943A1, “GDF-15 for assessing a cardiovascular risk with respect to the administration of antiinflammatory drugs” (F. Hoffmann-La Roche AG, priority 2008, dated 2009).

CS(=O)(=O)c1ccc(C2=C(c3ccccc3)C(=O)OC2)cc1 [Rofecoxib]
additional cardiovascular incidents (myocardial infarction, stroke) (25 mg rofecoxib compared with a placebo, after 18 months of follow-up): 16 per 1,000 treated patients
blood pressure levels (25 mg rofecoxib compared with a placebo, early post-observation phase): higher blood pressure levels
rise in the rate of serious thromboembolic incidents (APPROVE study, patients without any recognisable cardiovascular risk, led to premature discontinuation): 3.9 times
